# Assay results taken from US20200232974A1, “LYMPHOCYTES EXPRESSING CD73 IN CANCEROUS PATIENT DICTATES THERAPY” (Centre Léon-Bérard, priority 2016, published 2020).
# T1: CD73 (Homo sapiens, UniProt P21589)
# T1 construct: endogenous in cells
# T1 sequence (P21589 27-549): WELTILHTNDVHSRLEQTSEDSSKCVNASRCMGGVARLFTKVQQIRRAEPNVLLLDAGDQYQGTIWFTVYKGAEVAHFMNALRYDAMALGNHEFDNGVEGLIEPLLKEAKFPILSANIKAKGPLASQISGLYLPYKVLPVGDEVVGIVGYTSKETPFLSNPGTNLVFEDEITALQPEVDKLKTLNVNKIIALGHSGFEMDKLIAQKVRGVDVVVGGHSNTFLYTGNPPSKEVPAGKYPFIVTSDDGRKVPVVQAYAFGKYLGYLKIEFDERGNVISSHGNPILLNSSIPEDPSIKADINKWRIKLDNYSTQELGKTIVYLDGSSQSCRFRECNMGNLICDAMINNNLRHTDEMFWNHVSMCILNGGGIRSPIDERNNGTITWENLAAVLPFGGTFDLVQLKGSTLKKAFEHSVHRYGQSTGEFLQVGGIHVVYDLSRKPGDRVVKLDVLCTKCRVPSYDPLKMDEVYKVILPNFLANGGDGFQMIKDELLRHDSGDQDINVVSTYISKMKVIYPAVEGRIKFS
# T2: CD39 (Homo sapiens, UniProt P49961)
# T2 construct: Treg purified from HD blood degraded 48.24±6.20% of ATP into AMP; endogenous in cells
# T2 sequence (P49961 1-510): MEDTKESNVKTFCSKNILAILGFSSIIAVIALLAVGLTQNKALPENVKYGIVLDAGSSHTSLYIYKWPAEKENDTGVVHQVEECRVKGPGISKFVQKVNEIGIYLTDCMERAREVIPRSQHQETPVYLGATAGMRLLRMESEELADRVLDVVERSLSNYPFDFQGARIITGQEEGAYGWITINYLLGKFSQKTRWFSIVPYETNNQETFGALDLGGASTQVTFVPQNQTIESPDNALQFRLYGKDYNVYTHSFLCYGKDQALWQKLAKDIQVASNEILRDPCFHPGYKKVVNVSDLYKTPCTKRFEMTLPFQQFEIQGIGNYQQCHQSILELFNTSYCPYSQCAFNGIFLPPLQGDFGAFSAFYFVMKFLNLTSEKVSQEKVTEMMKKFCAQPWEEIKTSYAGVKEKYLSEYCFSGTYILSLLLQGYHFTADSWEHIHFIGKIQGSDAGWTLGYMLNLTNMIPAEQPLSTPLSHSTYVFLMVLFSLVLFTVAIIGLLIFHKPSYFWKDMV
# B1: rhADA: recombinant Adenosine Deaminase, inducing degradation of Ado into Ino (protein, UniProt P00813 2-363, looked up)
# Adenosine deaminase: AQTPAFDKPKVELHVHLDGSIKPETILYYGRRRGIALPANTAEGLLNVIGMDKPLTLPDFLAKFDYYMPAIAGCREAIKRIAYEFVEMKAKEGVVYVEVRYSPHLLANSKVEPIPWNQAEGDLTPDEVVALVGQGLQEGERDFGVKARSILCCMRHQPNWSPKVVELCKKYQQQTVVAIDLAGDETIPGSSLLPGHVQAYQEAVKSGIHRTVHAGEVGSAEVVKEAVDILKTERLGHGYHTLEDQALYNRLRQENMHFEICPWSSYLTGAWKPDTEHAVIRLKNDQANYSLNTDDPLIFKSTLDTDYQMTKRDMGFTEEEFKRLNINAAKSSFLPEDEKRELLDLLYKAYGMPPSASAGQNL
# Legend:
# CD73+ or CD73neg Tconv [1] = test: 4 days' proliferation of purified CD73+ or CD73neg Tconv with anti-CD3/anti-CD28 beads; format: cell-based, human
# Method: Addition of recombinant ADA (rhADA, 1 μg/ml), inducing degradation of Ado into Ino restored both T cell subsets proliferation confirming the immunosuppressive impact of Ado.
# CD73 = target: T1, CD73; test: Hydrolysis of C13N15 AMP into Ado by CD73+ Tconv (HPLC); format: cell-based
# Method: To confirm this hypothesis, we quantified, by HPLC, the capacity of Treg to degrade ATP into Ado. To prevent interference with endogenous ATP or metabolites, these experiments were performed with exogenous C13N15 stable isotope ATP. After two hours, Treg purified from HD blood degraded 48.24±6.20% of ATP into AMP without generating neither Ado nor Inosine. […] Moreover, we confirmed that CD73^+ and CD73^neg Tconv were not able to degrade C13N15 ATP.
# Using this technique, we confirmed the enzymatic functionality of CD73 on Tconv. Only CD73^+ Tconv were capable of hydrolyzing C13N15 AMP into Ado and this was reversed by addition of a specific CD73 inhibitor (AMPCP).
# CD73+ Tconv = test: Co-culture of Treg with CD73+ or CD73neg Tconv, with or without exogenous ATP: proliferation (CTV dilution); format: cell-based, human; details: Treg:Tconv ratio 1/1; round-bottomed wells; anti-CD3/anti-CD28 beads
# Excerpt: To analyze the biological impact of Ado generation by cooperation between CD39^+ Treg and CD73^+ Tconv, we co-cultured Treg labeled with proliferation marker CFSE in presence of CD73^+ or CD73^neg Tconv labeled with Cell Trace Violet (CTV) at a ratio 1/1 in presence or absence of exogenous ATP in round-bottomed wells with compact cell density in presence of anti-CD3/anti-CD28 beads. […] In contrast, CTV-labeled CD73^+ or CD73^neg proliferation that was not altered by the addition of Treg due to the strong activation. […] To mimic physiological conditions, Treg, CD73^+ and CD73^neg Tconv subsets were mixed together at physiological ratio (10%/20%/70%) observed in blood. ATP induced inhibition of the bulk proliferation which can be rescued by the combined addition of CD39 and CD73 inhibitors. The proliferation of each subset was analyzed by specific proliferation markers (CFSE and CTV alone or in combination).
# CD39 = target: T2, CD39; test: Degradation of exogenous C13N15 ATP by purified Treg, quantified by HPLC; format: cell-based; details: Treg purified from HD blood, two hours
# Method: FIG. 3: Breast and ovarian tumors contain highly functional CD39+ Treg and CD73+ Tconv with Th1/17 characteristics. (A) Representative expression of CD39 and CD73 analyzed on memory CD4+ Treg and Tconv from Breast (B) and ovarian (OT) by flow cytometry. Frequency of CD39+ cells (B) and Δ CD39 MFI on these cells (C) among paired Treg and Tconv were analyzed by flow cytometry among BT and OT and statistical analysis was performed by Two-way Anova analysis. (D) Purified tumor-associated Treg were assessed for ATP (37.5 μM) degradation by HPLC measurements and compared to HD-blood Treg. In some conditions 30 min pre-incubation with ARL67156 (250 μM) was used to assess the role of CD39 functional activity. (E,F) Δ CD39 MFI of CD39+ cells among Treg (E) or Tconv (F) from paired peripheral blood and BT or OT were analyzed. Statistical analysis was performed by using Two-way Anova analysis. (G) Frequency of CD73+ cells among Tconv from BT and OT was analyzed by flow cytometry. Statistical analysis was performed by using Kruskal-Wallis test.
# To confirm this hypothesis, we quantified, by HPLC, the capacity of Treg to degrade ATP into Ado. To prevent interference with endogenous ATP or metabolites, these experiments were performed with exogenous C13N15 stable isotope ATP. After two hours, Treg purified from HD blood degraded 48.24±6.20% of ATP into AMP without generating neither Ado nor Inosine. […]
# CD73+ or CD73neg Tconv [2] = test: Cytokine secretion of purified Tconv subsets after 2 days of anti-CD3/anti-CD28 bead activation; format: cell-based, human; details: 2 days of activation; addition of Ado
# Method: Moreover, the impact of Ado and AMP on cytokine secretion capacity was analyzed on both purified Tconv subsets. To avoid a confounding effect of Ado and AMP on proliferation in this analysis we analyzed cytokine secretion after 2 days of activation with anti-CD3/anti-CD28 beads which was determined as the maximal length of activation without induction of any proliferation (CFSE dilution). First, we confirmed that CD73^+ Tconv produced more IL-2, TNF-α, IFN-γ, IL-17A, IL-22, GM-CSF and IL-3 but less IL-10, IL-13 and IL-21 than CD73^neg in this activation setting. As shown previously for the proliferation, the secretion of the cytokines produced by CD73^+ or CD73^neg Tconv was inhibited by the addition of Ado.
# MDR1 = target: T3, MDR1 (Homo sapiens, UniProt P08183); test: MDR1 functionality: Rhodamine 123 (Rhd123) efflux by flow cytometry; format: cell-based; details: HD-PBMC stained with Rhd123 (1 μg/ml); Elacridar 1 μM
# T3 construct: After staining of HD-PBMC with Rhd123 we analyzed, by flow cytometry, cells endowed with Rhd123 efflux function; endogenous in cells
# Method: (B, C) MDR1 functionality was assessed on CD73^+ and CD73^neg Tconv by their capacity to exclude Rhd123 (1 μg/ml) analyzed by flow cytometry. […] Frequency of Rhd123^neg cells was analyzed among CD73^+ (black) and CD73^neg (white) Tconv (D). Statistical analysis was performed by using Wilcoxon test.
# Moreover, we took advantage of the physiological role of MDR1 in the efflux of specific fluorescent substrate like Rhodamine 123 (Rhd123). After staining of HD-PBMC with Rhd123 we analyzed, by flow cytometry, cells endowed with Rhd123 efflux function.
# in vitro = details: human
# Method: (§1) Memory CD4^+ Tconv purified from healthy donor PBMC were used. Purified 10^5 CD4^+ Tconv were cultured in 96-round bottomed wells in complete RPMI medium for 48 h in presence of a strong TCR stimulation (expand beads, ratio bead:cell 1:8)+IL-2 (50UI/ml) in absence (medium condition) or in presence of graded doses of Taxol (0.01; 0.1; 1 μM). Viability was analyzed by multiparametric flow cytometry on different cell subsets according to their expression of CD73 and MDR1 (CD73 MDR1, CD73^+MDR1^neg, CD73^negMDR1^+, CD73^negMDR1^neg). Survival was analyzed by multiparametric flow cytometry using Annexin-V and DAPI stainings (both from Becton Dickinson) according to CD73 and MDR1 expression. % of viable cells (Annexin V^neg DAPI^neg) was compared according to the cell subset analyzed.
# (§2) Their survival was analyzed by multiparametric flow cytometry using with Annexin-V and DAPI stainings (both from Becton Dickinson) according to CD73 and MDR1 expression. The percentage of viable cells (Annexin V^neg DAPI^neg) was compared according to the cell subset analyzed.
# [3] = test system: PBMC-purified memory CD4+ Tconv; test: in vitro; details: 48 h
# Method: as §1, §2
# [4] = test system: CD73 and TIGIT expression on CD4+ and CD8+ T cells; test: Blood immune-monitoring of metastatic melanoma patients during anti-PD1 treatment (multiparametric flow cytometry); format: in vivo, human
# Method: 2nd line metastatic melanoma patients treated with anti PD-1 (Nivolumab, 3 mg/kg/i.v, every 2 weeks) were subjected to blood immune-monitoring, by multiparametric flow cytometry analysis, to assess, using specific coupled mAbs against CD73 (APC) and TIGIT (PE), the modulation of expression of both ICP on CD4+ and CD8+ T cells before (inclusion, WO) and during treatment (W2, W12).
# T3 sequence (P08183 whole entry): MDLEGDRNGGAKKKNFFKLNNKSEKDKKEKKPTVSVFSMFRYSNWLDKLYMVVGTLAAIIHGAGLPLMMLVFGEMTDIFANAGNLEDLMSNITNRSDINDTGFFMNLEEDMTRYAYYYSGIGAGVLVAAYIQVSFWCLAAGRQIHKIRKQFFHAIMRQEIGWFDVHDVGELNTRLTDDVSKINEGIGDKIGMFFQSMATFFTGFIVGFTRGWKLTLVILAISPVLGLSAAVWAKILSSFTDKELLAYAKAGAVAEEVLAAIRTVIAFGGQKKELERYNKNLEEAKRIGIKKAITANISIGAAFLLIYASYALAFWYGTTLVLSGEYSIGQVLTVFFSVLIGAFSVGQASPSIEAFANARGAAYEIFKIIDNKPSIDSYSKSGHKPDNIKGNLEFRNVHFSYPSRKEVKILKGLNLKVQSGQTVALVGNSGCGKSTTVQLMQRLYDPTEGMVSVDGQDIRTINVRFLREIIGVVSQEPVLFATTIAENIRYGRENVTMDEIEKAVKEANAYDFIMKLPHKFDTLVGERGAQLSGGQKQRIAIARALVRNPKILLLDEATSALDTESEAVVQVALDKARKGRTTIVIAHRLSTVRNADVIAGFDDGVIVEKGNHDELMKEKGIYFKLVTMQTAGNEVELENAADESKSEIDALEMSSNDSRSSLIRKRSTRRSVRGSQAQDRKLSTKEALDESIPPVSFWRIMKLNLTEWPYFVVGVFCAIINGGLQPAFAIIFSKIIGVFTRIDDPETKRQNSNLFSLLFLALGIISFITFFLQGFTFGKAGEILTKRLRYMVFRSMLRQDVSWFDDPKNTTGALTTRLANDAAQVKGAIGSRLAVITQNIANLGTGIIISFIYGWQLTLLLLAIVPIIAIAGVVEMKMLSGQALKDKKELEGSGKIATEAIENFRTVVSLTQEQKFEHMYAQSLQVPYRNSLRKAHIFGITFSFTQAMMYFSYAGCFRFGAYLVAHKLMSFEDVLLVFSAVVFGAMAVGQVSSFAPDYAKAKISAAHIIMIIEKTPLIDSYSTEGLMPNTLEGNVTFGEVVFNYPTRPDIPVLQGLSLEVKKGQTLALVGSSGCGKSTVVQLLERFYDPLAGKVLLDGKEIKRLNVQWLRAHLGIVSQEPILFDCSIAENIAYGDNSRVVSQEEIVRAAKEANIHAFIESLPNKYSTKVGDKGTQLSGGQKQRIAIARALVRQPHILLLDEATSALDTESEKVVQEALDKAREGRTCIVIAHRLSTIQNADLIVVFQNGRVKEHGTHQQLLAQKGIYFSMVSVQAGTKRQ
molecule,measurement,setting,value
Nc1ncnc2c1ncn2[C@@H]1O[C@H](COP(=O)(O)CP(=O)(O)O)[C@@H](O)[C@H]1O [AMPCP],effect on AMP-induced inhibition of CD73+ Tconv proliferation,CD73+ or CD73neg Tconv [1]; added with AMP (150 μM final concentration),reversion of inhibition
same,effect on hydrolysis of C13N15 AMP into Ado by CD73+ Tconv,CD73,reversed
same,effect on inhibition of CD73+ Tconv proliferation induced by Treg and ATP,CD73+ Tconv,reversed
Nc1ncnc2c1ncn2[C@@H]1O[C@H](COP(=O)(O)O)[C@@H](O)[C@H]1O [AMP],effect on proliferation of CD73+ Tconv,"CD73+ or CD73neg Tconv [1]; metronomic addition, 150 μM final concentration, 4 days",inhibited
CCN(CC)c1ncnc2c1ncn2[C@@H]1O[C@H](COP(=O)(O)OP(=O)(O)C(Br)(Br)P(=O)(O)O)[C@@H](O)[C@H]1O [ARL67156],effect on degradation of ATP into AMP by Treg,CD39,completely inhibited
"Nc1ncnc2c1ncn2[C@@H]1O[C@H](CO)[C@@H](O)[C@H]1O [Ado, adenosine]",effect on IL-17A secretion by Tconv CD73+ (or CD73neg),CD73+ or CD73neg Tconv [2],not altered
same,effect on IL-22 secretion,CD73+ or CD73neg Tconv [2],slightly inhibited
same,effect on secretion of the cytokines produced by CD73+ or CD73neg Tconv,CD73+ or CD73neg Tconv [2],inhibited
same,effect on proliferation of both subsets (CD73+ and CD73neg Tconv),"CD73+ or CD73neg Tconv [1]; metronomic addition 75 μM/day, 300 μM final concentration, 4 days",inhibited
COc1cc2c(cc1OC)CN(CCc1ccc(NC(=O)c3cccc4c(=O)c5cccc(OC)c5[nH]c34)cc1)CC2 [Elacridar],effect on Rhd123 efflux by Tconv,MDR1,completely abrogated
CC(=O)O[C@H]1C(=O)[C@@]2(C)[C@H]([C@H](OC(=O)c3ccccc3)[C@]3(O)C[C@H](OC(=O)[C@H](O)[C@@H](NC(=O)c4ccccc4)c4ccccc4)C(C)=C1C3(C)C)[C@]1(OC(C)=O)CO[C@@H]1C[C@@H]2O [Taxol],"viability at 48 h, 1 µM",in vitro,80%
same,sensitivity to Taxol-induced apoptosis,"[3]; CD73+MDR1neg subset, high Taxol doses",sensitive to apoptosis
same,sensitivity to Taxol-induced apoptosis,[3]; CD73negMDR1neg population,highly sensitive
Nivolumab: anti PD-1 antibody given to metastatic melanoma patients,modulation of CD73 expression on CD4+ or CD8+ T cells,"[4]; 11 patients, 3 mg/kg i.v. every 2 weeks, before (W0) and during treatment (W2, W12)",No significant modulation
same,modulation of TIGIT expression,"[4]; between W0 and W2, representative dot plot",increased
B1,effect on Ado-inhibited proliferation of both T cell subsets,CD73+ or CD73neg Tconv [1]; rhADA 1 μg/ml added with exogenous Ado,restored
